This note sets out measurements from patent US20220204512A1, “SUBSTITUTED FUSED BICYCLIC DERIVATIVE, PREPARATION METHOD THEREFOR, AND APPLICATION THEREOF IN MEDICINES” (Jiangsu Hengrui Medicine Co., Ltd., priority 2019, published 2022).

Series [1] in a line: Pharmacokinetics assay in mice. To be noted: female, mouse, po, C57 mice, intragastric, 2 mg/kg, plasma; for Vd/F: read-out: Apparent distribution volume Vz/F; for AUC: read-out: Area under curve AUC; for CL/F: read-out: Clearance CLz/F; for half-life: read-out: Half-life T1/2 (converted); for Cmax: read-out: Plasma concentration Cmax; for MRT: read-out: Residence time MRT. The format is in vivo. As for the experimental part:
Mice were used as test animals. The drug concentration in plasma at different time points was determined by LC/MS/MS method after administration of the compounds 1-P2, 2-P2, 4-P2, 6-P2, 9-P2, 10-P2 and 11-P2. The pharmacokinetic behavior of the compounds of the present disclosure was studied and evaluated in mice.
Sixty-three C57 mice (female, equally divided into seven groups) were purchased from Shanghai Jiesijie Laboratory Animal Co., LTD. (Certificate No.: SCXK(Shanghai)2013-0006).
A certain amount of the test compound was weighed, dissolved in 5% of DMSO by volume and 5% of tween 80, followed by the additon of 90% of normal saline to prepare a 0.1 mg/mL colorless, clear and transparent solution.
After an overnight fast, C57 mice were intragastrically administered the test compound at an administration dose of 2 mg/kg and an administration volume of 0.2 ml/10 g.
The mice were intragastrically administered the test compounds. 0.1 ml of blood was taken before the administration and at 0.25, 0.5, 1.0, 2.0, 4.0, 6.0, 8.0, 11.0 and 24.0 hours after the administration. The samples were stored in heparinized tubes, and centrifuged for 10 minutes at 3500 rpm to separate the blood plasma. The plasma samples were stored at −20° C.
The content of the test compound in the plasma of mice after intragastrical administration of the test compound at different concentrations was determined: 25 μL of […] plasma at each time point after the administration was taken, followed by the addition of 50 μL of the internal standard camptothecin solution (100ng/mL) and 200 μL of acetonitrile. The resulting solution was vortex-mixed for 5 minutes, and centrifuged for 10 minutes (4000 rpm). 4 μL of the supernatant was taken from the plasma samples for LC/MS/MS analysis.

A further series addresses T1, ERK1 (Homo sapiens, UniProt P27361).
T1 construct: purchased R&D 1879-KS-010
Description: ERK1 enzyme activity test (ADP-Glo Kinase Assay). The format is biochemical. To be noted: ADP-Glo chemiluminescence. As to the method:
(§1) The purpose of this experiment is to detect the inhibitory ability of the compounds of the present disclosure on the ERK1 enzyme activity and to evaluate the in vitro activity of the compounds based on the IC50. The ADP-Glo™ Kinase Assay Kit was used in this experiment. The substrate was phosphorylated under the action of the enzyme and ADP was produced at the same time. The ADP-Glo reagent was added to remove the unreacted ATP in the reaction system, and the ADP produced by the reaction was detected with kinase detection reagent. In the presence of the compound, the inhibition rate of the compound was calculated by measuring the signal value.
Preparation of Enzyme and substrate: ERK1 (1879-KS-010, R&D) and substrate (AS-61777, anaspec) were prepared to 0.75 ng/p1 and 100 μM respectively in a buffer, and then the enzyme solution and the substrate solution were prepared into a mixed solution at a volume ratio of 2:1 for later use. ATP was diluted to 300 μM with buffer. The compound was dissolved in DMSO (dimethyl sulfoxide, Shanghai Titan Scientific Co., Ltd.) to prepare a stock solution with an initial concentration of 20 mM, and then Bravo was used to prepare the compound. Finally, 3 μL of a mixed solution of enzyme and substrate, and 1 μL of different concentrations of the compound (the initial concentration was 50 μM, 4-fold dilution) were added to each well of the 384-well plate, and the plate was incubated at 30° C. for 10 minutes, and finally 1 μL of 300 μM ATP solution was added to each well, and the plate was incubated at 30° C. for 2 hours. Then 5 μL of ADP-Glo was added, and the plate was incubated at 30° C. for 40 minutes. Then 10 μL of kinase detection buffer was added, and the plate was incubated at 30° C. for 40 minutes. The 384-well plate was taken out and placed in a microplate reader (BMG labtech, PHERAstar FS), and the chemiluminescence was measured by a microplate reader.
(§2) Microsoft Excel, Graphpad Prism 5 was used to process and analyze the data.
(In general: In ADP-Glo the light output rises with the ADP produced.)

The target in the next series is T2, ERK2 (Homo sapiens, UniProt P28482).
T2 construct: purchased R&D 1879-KS-010
T2 sequence (P28482 2-360 limits assumed): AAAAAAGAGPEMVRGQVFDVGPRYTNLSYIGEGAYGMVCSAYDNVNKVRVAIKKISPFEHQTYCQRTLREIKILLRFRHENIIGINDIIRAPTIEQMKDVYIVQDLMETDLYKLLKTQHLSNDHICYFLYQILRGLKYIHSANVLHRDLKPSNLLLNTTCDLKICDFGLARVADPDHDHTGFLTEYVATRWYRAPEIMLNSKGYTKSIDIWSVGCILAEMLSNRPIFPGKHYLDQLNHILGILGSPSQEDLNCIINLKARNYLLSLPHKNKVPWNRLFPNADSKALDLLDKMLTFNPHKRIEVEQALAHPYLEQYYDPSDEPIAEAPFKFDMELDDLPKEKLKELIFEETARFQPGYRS
Description: ERK2 enzyme activity test (ADP-Glo Kinase Assay). In kind it is biochemical. The settings on record: ADP-Glo chemiluminescence. As to the method:
as §1, with “the ERK2” for “the ERK1”, “enzyme activity,” for “enzyme activity”
Preparation of enzyme and substrate: ERK2 (1879-KS-010, R&D) and substrate (custom peptide, Gill Biochemical) were prepared to 0.75 ng/ml and 1500 μM in a buffer (40 mM Tris, 20 mM MgCl2, 0.1 mg/ml BSA, 50 μM DTT), and then the enzyme solution and the substrate solution were prepared into a mixed solution at a volume ratio of 2:1 for later use. ATP was diluted to 500 μM with buffer. The compound was dissolved in DMSO (dimethyl sulfoxide, Shanghai Titan Scientific Co., Ltd.) to prepare a stock solution with an initial concentration of 20 mM, and then Bravo was used to prepare the compound. Finally, 3 μL of a mixed solution of enzyme and substrate, and 1 μL substrate of different concentrations of the compound (the initial concentration is 50 μM, 4-fold dilution) were added to each well of the 384-well plate, and the plate was incubated at 30° C. for 10 minutes, and finally 1 μL 500 μM ATP solution was added to each well, and the plate was incubated at 30° C. for 2 hours. Then 5 μL of ADP-Glo was added, and the plate was incubated at 30° C. for 40 minutes. Then 10 μL of kinase detection buffer was added, and the plate was incubated at 30° C. for 40 minutes. The 384-well plate was taken out and placed in a microplate reader (BMG labtech, PHERAstar FS), and the chemiluminescence was measured by a microplate reader.
as §2

Another series has as its system Colo205 cells. Briefly: In vitro proliferation inhibition test on Colo205 tumor cells (CellTiter-Glo). In kind it is cell-based. To be noted: Homo sapiens, COLO 205, 72 h; Colo205 cell proliferation, 3 days of culture, CTG. As to the method: The purpose of this experiment is to test the inhibitory activity of the compounds of the present disclosure on the proliferation of Colo205 cells (CCL-222, ATCC) in vitro. The cells were treated in vitro with different concentrations of the compounds. After 3 days of culture, the cell proliferation was tested with CTG (CellTiter-Glo® Luminescent Cell Viability Assay, Promega, Catalog No. G7573) reagent, and the in vitro activity of the compounds was evaluated according to the ICso value.
In the following, the in vitro proliferation inhibition test method of Colo205 cells is taken as an example to illustrate the method for testing the in vitro proliferation inhibitory activity of the compounds of the present disclosure on tumor cells. This method is also applicable to, but not limited to, the in vitro proliferation inhibitory activity test on other tumor cells.
Colo205 cells were digested, centrifuged and then resuspended. The single cell suspension was mixed well, and the density of viable cells was adjusted to 5.0×10^4 cells/ml with cell culture medium (RPMI1640+2% FBS), and 95 μL/well was added to a 96-well cell culture plate. Only 100 μL medium was added to the peripheral wells of the 96-well plate. The culture plate was incubated in an incubator for 24 hours (37° C., 5% CO2).
The compound was dissolved in DMSO (dimethyl sulfoxide, Shanghai Titan Scientific Co., Ltd.) and prepared as a stock solution with an initial concentration of 20 mM. The initial concentration of the small molecule compound was 2 mM, and then 4-fold diluted into 9 points, and the 10th point was DMSO. Another 96-well plate was taken, and 90 μL of cell culture medium (RPMI1640+2% FBS) was added to each well. Then 10 μL of different concentrations of the test sample was added to each well. The mixture was mixed well, and then 5μL of different concentrations of the test sample was added to the cell culture plate. Each sample has two duplicate holes. The culture plate was incubated in the incubator for 3 days (37° C., 5% CO2). The 96-well cell culture plate was taken out. 50 μL solution of CTG was added to each well, and the plate was incubated for 10 minutes at room temperature. In a microplate reader (BMG labtech, PHERAstar FS), chemiluminescence was measured with the microplate reader.
as §2
On the technique in general: Cellular ATP, detected with luciferase, serves as a proxy for viable cell number.

Each structure is given as a SMILES string.

T1 sequence (P27361 whole entry): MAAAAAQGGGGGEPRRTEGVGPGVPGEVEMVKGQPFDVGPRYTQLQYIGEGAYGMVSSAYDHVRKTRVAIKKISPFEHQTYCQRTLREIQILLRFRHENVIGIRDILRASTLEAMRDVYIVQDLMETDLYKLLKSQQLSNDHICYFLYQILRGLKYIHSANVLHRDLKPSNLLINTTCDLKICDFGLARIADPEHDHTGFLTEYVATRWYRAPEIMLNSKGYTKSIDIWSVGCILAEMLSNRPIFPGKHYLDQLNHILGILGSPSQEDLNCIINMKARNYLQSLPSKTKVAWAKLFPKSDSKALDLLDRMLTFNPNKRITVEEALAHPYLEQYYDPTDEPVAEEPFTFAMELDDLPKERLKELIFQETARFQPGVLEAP

By AUC is commonly meant concentration integrated over time. The term MRT denotes a mean duration of stay, worked out from the concentration-time curve. The IC50 is the point on the concentration scale where inhibition reaches its midpoint. Read a low IC50 as greater potency. As to `COc1cc(F)cc([C@@H](CO)NC(=O)[C@@H](C)N2CCc3cc(-c4nc(Nc5ccnn5C)ncc4C)cn3C2=O)c1` [Example 1-P2, (R)-N-((S)-1-(3-Fluoro-5-methoxyphenyl)-2-hydroxyethyl)-2-(6-(5-methyl-2-((1-methyl-1H-pyrazol-5-yl)amino)pyrimidin-4-yl)-1-oxo-3,4-dihydropyrrolo[1,2-c]pyrimidin-2(1H)-yl)propanamide], in series [1], the Vd/F was determined as 3.75 L/kg, the area under the curve (AUC) was determined as 1110 ng·h/mL, the CL/F turned out to be 29.7 mL/min/kg and the half-life is 1.46 h. Besides, in series [1], the Cmax worked out at 501 ng/mL and the MRT came out at 1.84 h. This molecule had a half-maximal inhibitory concentration (IC50) on ERK1 of 7 nM. This molecule also displayed an IC50 against ERK2 of 1.5 nM. Besides, the midpoint of inhibition in the series with Colo205 cells, the IC50, lay at 17.4 nM.
`COc1cc(F)cc([C@@H](CO)NC(=O)[C@@H](C)N2CCc3cc(-c4nc(NC5CCOCC5)ncc4Cl)cn3C2=O)c1` [Example 2-P2, (R)-2-(6-(5-Chloro-2-((tetrahydro-2H-pyran-4-yl)amino)pyrimidin-4-yl)-1-oxo-3,4-dihydropyrrolo[1,2-c]pyrimidin-2(1H)-yl)-N-((S)-1-(3-fluoro-5-methoxyphenyl)-2-hydroxyethyl)propanamide]: in series [1], the Vd/F was determined as 5.94 L/kg, the exposure (AUC) is 994 ng·h/mL, the CL/F came to 33.5 mL/min/kg and the half-life is 2.05 h. Besides, in series [1], the Cmax came out at 867 ng/mL and the mean residence time MRT was found to be 1.08 h. For the same molecule, the IC50 at ERK1 was found to be 4.6 nM. Further, at ERK2, 1.7 nM corresponded to half-maximal inhibition (IC50). In the series on Colo205 cells, the IC50 is 15 nM.
As for `Cc1cccc([C@@H](CO)NC(=O)[C@@H](C)N2CCn3cc(-c4nc(NC5CCOCC5)ncc4Cl)cc3C2=O)c1` [Example 9-P2, (R)-2-(7-(5-Chloro-2-((tetrahydro-2H-pyran-4-yl)amino)pyrimidin-4-yl)-1-oxo-3,4-dihydropyrrolo[1,2-a]pyrazin-2(1H)-yl)-N-((S)-2-hydroxy-1-(m-tolyl)ethyl)propanamide], in series [1], the Vd/F worked out at 3.14 L/kg, the AUC turned out to be 1330 ng·h/mL, the CL/F is 25.1 mL/min/kg and the half-life was 1.44 h. Further, in series [1], the Cmax worked out at 1410 ng/mL and the MRT stood at 0.838 h. The IC50 against ERK1 came out at 9 nM. The IC50 against ERK2 is 1.9 nM. Moreover, in the series with Colo205 cells, the half-inhibitory concentration (IC50) amounted to 17.7 nM.
With `Cc1cccc([C@@H](CO)NC(=O)[C@@H](C)N2CCc3cc(-c4nc(NC5CCOCC5)ncc4Cl)cn3C2=O)c1` [Example 11-P2, (R)-2-(6-(5-Chloro-2-((tetrahydro-2H-pyran-4-yl)amino)pyrimidin-4-yl)-1-oxo-3,4-dihydropyrrolo[1,2-c]pyrimidin-2(1H)-yl)-N-((S)-2-hydroxy-1-(m-tolyl)ethyl)propanamide], in series [1], the Vd/F is 3.51 L/kg, the AUC came to 784 ng·h/mL, the CL/F was determined as 42.4 mL/min/kg and the half-life is 0.957 h. Moreover, in series [1], the Cmax worked out at 813 ng/mL and the MRT was determined as 1.15 h. In addition, the IC50 at ERK1 amounted to 17 nM. Moreover, the IC50 at ERK2 is 2.1 nM. The molecule also displayed an IC50 with Colo205 cells of 26 nM.
